Data reported in patent US20250009727A1, “WATER-SOLUBLE SALTS OF DNA BINDING AGENTS” (BOARD OF REGENTS, THE UNIVERSITY OF TEXAS SYSTEM, priority 2021, published 2025).

What was measured:
ependymoma cell lines = experiment: In vitro cytotoxicity in ependymoma cell lines; type: cell-based
Source text: (§1) FIG. 3—In vitro efficacy of WP1874 in ependymoma, normal kidney, glioblastoma, and medulloblastoma cell lines.

[1] = test system: orthotopic U87 model of GBM; experiment: In vivo efficacy in orthotopic U87 GBM model; conditions: nude athymic mice, intracranial U87; three doses at 1 and 5 mg/kg IP from day 10
Procedure: FIG. 2—In vivo efficacy of WP1244 in orthotopic U87 GBM model. Eighteen nude athymic mice were implanted intracranially with 0.5 mln U87 GBM cells. Animals were randomized into three experimental groups (n=6). The treatment was initiated on day 10 and consisted of three doses ow WP1244 at 1 and 5 mg/kg given IP.

[2] = Solubility in water and 5% dextrose at room temperature; type: physicochemical
Procedure: To improve solubility and develop IV injectable formulation, different salts of WP1244 were prepared.

CNS uptake of WP1244 = conditions: in vivo
[3] = test system: glioblastoma multiforme (GBM) cell lines; experiment: In vitro cytotoxicity in glioblastoma multiforme (GBM) cell lines; type: cell-based
Source text: as §1

COc1cccc2c1C(=O)c1c(O)c3c(c(O)c1C2=O)C[C@](O)(C(C)=O)C[C@H]3OC1CC(NCc2ccc(NC(=O)c3cc(NC(=O)c4cc(NC(=O)c5ccccn5)cn4C)cn3C)cc2)C(O)C(C)O1 (stereo partly shown) [WP1244]
Cytotoxicity (ependymoma cell lines): picomolar to low nanomolar | In vivo activity in orthotopic U87 GBM model [1]: demonstrated in vivo activity | Solubility in 5% Dextrose ([2]; 5% dextrose, room temperature): Lower than 0.25 mg/mL | Solubility (in words) ([2]; salt forms compared for IV injectable formulation): poor solubility | Solubility in H2O ([2]; water, room temperature): Lower than 0.25 mg/mL | CNS uptake (CNS uptake of WP1244): especially high CNS uptake | Cytotoxicity [3]: picomolar to low nanomolar
